Results as given in patent US4231928A, “Antibacterial agents” (priority 1979, dated 1980).
Like-named read-outs stand apart in the source and are kept apart here.

Experiments:
[1] = test system: Pseudomonas aeruginosa; assay: Serial twofold agar dilution (Mueller-Hinton agar), P. aeruginosa; format: cell-based; details: Pseudomonas aeruginosa, Mueller-Hinton agar, read-out: MIC
Procedure: (§1) The Minimum Inhibitory Concentrations (MIC) for sodium 6-[D-(-)-α-phenyl-α-(7-hydroxy-4-oxo-4H-pyrimido[1,2-b]pyridazin-3-ylcarboxamido)acetamido]penicillanate (BB-P598) and sulbenicillin were determined by the serial twofold agar dilution method using Steers' apparatus on Mueller-Hinton agar plates against 31 test organisms for the primary screening (Table 1) and also against 61 strains of Pseudomonas aeruginosa for the secondary evaluation (Table 2).
(§2) Minimum Inhibitory Concentrations (MIC) for sodium 6-[D-(-)-α-phenyl-α-(7-hydroxy-4-oxo-4H-pyrimido[1,2-b]pyridazin-3-ylcarboxamido)acetamido]pencillanate (BB-P598), sodium 6-[D-(-)-α-(4-hydroxyphenyl)-α-(7-hydroxy-4-oxo-4H-pyrimido[1,2-b]pyridazin-3-ylcarboxamido)acetamido]-penicillanate (BB-P642) and carbenicillin were determined by the serial twofold agar dilution method using Steers' apparatus on Mueller-Hinton agar plates against 31 tests organisms (Table 8) and also against 61 strains of Pseudomonas aeruginosa (Table 9). In terms of mean % relative activity compared with carbenicillin, compounds BB-B598 and BB-P642 were 856% and 1319% as active as carbenicillin against the 61 Pseudomonas strains of Table 9.

[2] = test system: S. marcescens; assay: Serial twofold agar dilution (Mueller-Hinton agar), S. marcescens; format: cell-based; details: Serratia marcescens
Procedure: as §1, §2

[3] = test system: S. aureus; assay: Serial twofold agar dilution (Mueller-Hinton agar), S. aureus; format: cell-based; details: Staphylococcus aureus
Procedure: as §1, §2

[4] = test system: P. vulgaris; assay: Serial twofold agar dilution (Mueller-Hinton agar), P. vulgaris; format: cell-based
Procedure: as §1, §2

[5] = test system: P. mirabilis; assay: Serial twofold agar dilution (Mueller-Hinton agar), P. mirabilis; format: cell-based; details: Proteus mirabilis, P. mirabilis A9900, Mueller-Hinton agar, read-out: MIC
Procedure: as §1, §2

[6] = test system: Klebsiella sp.; assay: Serial twofold agar dilution (Mueller-Hinton agar), Klebsiella sp.; format: cell-based; details: Klebsiella sp. A20452, Mueller-Hinton agar
Procedure: as §1, §2

[7] = test system: P. morganii; assay: Serial twofold agar dilution (Mueller-Hinton agar), P. morganii; format: cell-based
Procedure: as §1, §2

[8] = Mouse blood levels after subcutaneous administration; details: in vivo, sc, 20 mg/kg
Procedure: Mouse blood levels of BB-[…] and BB-[…] were determined by subcutaneous administration of 20 mg/kg of the penicillin to groups of three mice. Blood samples collected from orbital sinuses were assayed by the paper disk agar-diffusion method on Sarcina lutea PC1 1001 plates.

[9] = test system: S. enteritidis; assay: Serial twofold agar dilution (Mueller-Hinton agar), S. enteritidis; format: cell-based
Procedure: as §1, §2

[10] = test system: E. cloacae; assay: Serial twofold agar dilution (Mueller-Hinton agar), E. cloacae; format: cell-based; details: Enterobacter cloacae
Procedure: as §1, §2

[11] = test system: E. coli; assay: Serial twofold agar dilution (Mueller-Hinton agar), E. coli; format: cell-based; details: Escherichia coli
Procedure: as §1, §2

[12] = test system: Pseudomonas sp.; assay: Serial twofold agar dilution (Mueller-Hinton agar), Pseudomonas sp.; format: cell-based
Procedure: as §1, §2

## CC1(C)S[C@@H]2[C@H](NC(=O)[C@H](NC(=O)c3cnc4ccc(O)nn4c3=O)c3ccccc3)C(=O)N2[C@H]1C(=O)O [BB-P598, sodium 6-[D-(-)-α-phenyl-α-(7-hydroxy-4-oxo-4H-pyrimido[1,2-b]pyridazin-3-ylcarboxamido)acetamido]penicillanate]
[1]; Pa-44 A21274, Table 2
  MIC: 3.1 µg/mL
[1]; Pa-44 A21274, Table 9
  MIC: 6.3 µg/mL
[1]; Pa-51 A9910, Table 2
  MIC: 3.1 µg/mL
[1]; Pa-51 A9910, Table 9
  MIC: 3.1 µg/mL
[1]; Pa-52 A9926, Table 2
  MIC: 3.1 µg/mL
[1]; Pa-52 A9926, Table 9
  MIC: 3.1 µg/mL
[1]; Pa-53 A20126, Table 2
  MIC: 3.1 µg/mL
[1]; Pa-53 A20126, Table 9
  MIC: 3.1 µg/mL
[1]; Pa-54 A20128, Table 2
  MIC: 3.1 µg/mL
[1]; Pa-54 A20128, Table 9
  MIC: 3.1 µg/mL
[1]; Pa-55 A20227, Table 2
  MIC: 3.1 µg/mL
[1]; Pa-55 A20227, Table 9
  MIC: 3.1 µg/mL
[1]; Pa-56 A20228, Table 2
  MIC: 3.1 µg/mL
[1]; Pa-56 A20228, Table 9
  MIC: 3.1 µg/mL
[1]; Pa-57 A20546, Table 2
  MIC: 3.1 µg/mL
[1]; Pa-57 A20546, Table 9
  MIC: 3.1 µg/mL
[1]; Pa-58 A20557, Table 2
  MIC: 6.3 µg/mL
[1]; Pa-58 A20557, Table 9
  MIC: 6.3 µg/mL
[1]; Pa-59 A20574, Table 2
  MIC: 6.3 µg/mL
[1]; Pa-59 A20574, Table 9
  MIC: 1.6 µg/mL
[1]; Pa-60 A20602, Table 2
  MIC: 1.6 µg/mL
[1]; Pa-60 A20602, Table 9
  MIC: 1.6 µg/mL
[1]; Pa-61 A20726, Table 2
  MIC: 6.3 µg/mL
[1]; Pa-61 A20726, Table 9
  MIC: 3.1 µg/mL
[1]; Pa-62 A21213, Table 2
  MIC: 12.5 µg/mL
[1]; Pa-62 A21213, Table 9
  MIC: > 100 µg/mL
[1]; Pa-64 A21336, Table 2
  MIC: 3.1 µg/mL
[1]; Pa-64 A21336, Table 9
  MIC: 1.6 µg/mL
[1]; Pa-65 A21428, Table 2
  MIC: 1.6 µg/mL
[1]; Pa-65 A21428, Table 9
  MIC: 1.6 µg/mL
[1]; Pa-66 A21434, Table 2
  MIC: 3.1 µg/mL
[1]; Pa-66 A21434, Table 9
  MIC: 3.1 µg/mL
[1]; Pa-67 A21509, Table 2
  MIC: 6.3 µg/mL
[1]; Pa-67 A21509, Table 9
  MIC: 6.3 µg/mL
[1]; Pa-68 A21510, Table 2
  MIC: 6.3 µg/mL
[1]; Pa-68 A21510, Table 9
  MIC: 3.1 µg/mL
[1]; Pa-69 A21587, Table 2
  MIC: 12.5 µg/mL
[1]; Pa-69 A21587, Table 9
  MIC: 6.3 µg/mL
[1]; Pa-70 K-PS102 (KR-102), Table 9
  MIC: 3.1 µg/mL
[1]; Pa-70 K-Ps102 (CR-102), Table 2
  MIC: 3.1 µg/mL
[2]; S. marcescens A20019, Table 1
  MIC: 100 µg/mL
[2]; S. marcescens A20019, Table 8
  MIC: 50 µg/mL
[3]; S. aureus A15097, Table 8, read-out: MIC
  MIC: > 100 µg/mL
[3]; S. aureus A20239, Table 8, read-out: MIC
  MIC: 25 µg/mL
[3]; S. aureus A20240, Table 8, read-out: MIC
  MIC: 12.5 µg/mL
[3]; S. aureus A20701, Table 8, read-out: MIC
  MIC: > 100 µg/mL
[3]; S. aureus BX-1633 A9606, Table 1, read-out: MIC
  MIC: 6.3 µg/mL
[3]; S. aureus BX-1633 A9606, Table 8, read-out: MIC
  MIC: 50 µg/mL
[3]; S. aureus BX-1633 A15097, Table 1, read-out: MIC
  MIC: 100 µg/mL
[3]; S. aureus BX-1633 A20240, Table 1, read-out: MIC
  MIC: 6.3 µg/mL
[3]; S. aureus BX-1633 A20701, Table 1, read-out: MIC
  MIC: > 100 µg/mL
[3]; S. aureus Smith A9537, Table 1, read-out: MIC
  MIC: 1.6 µg/mL
[3]; S. aureus Smith A9537, Table 8, read-out: MIC
  MIC: 1.6 µg/mL
[3]; S. aureus Smith A20239, Table 1
  MIC: 25 µg/mL
[4]; P. vulgaris A9539, Table 1
  MIC: 25 µg/mL
[4]; Proteus vulgaris, P. vulgaris A9539, Table 8, read-out: MIC
  MIC: 25 µg/mL
[5]; Table 1
  MIC: 0.2 µg/mL
[5]; Table 8
  MIC: 6.3 µg/mL
[6]; Table 1, read-out: MIC
  MIC: 25 µg/mL
[6]; Table 8, read-out: MIC
  MIC: 12.5 µg/mL
[7]; Morganella morganii, P. morganii A9553, Table 8, read-out: MIC
  MIC: > 100 µg/mL
[7]; P. morganii A9553, Table 1
  MIC: > 100 µg/mL
[8]
  concentration at 0.25 h: 3570 ng/mL
  concentration at 0.5 h: 900 ng/mL
[9]; S. enteritidis A9531, Table 1
  MIC: 6.3 µg/mL
[9]; Salmonella enterica, S. enteritidis A9531, Table 8, read-out: MIC
  MIC: 6.3 µg/mL
[10]; E. cloacae A9656, Table 1
  MIC: 25 µg/mL
[10]; E. cloacae A9656, Table 8
  MIC: 25 µg/mL
[10]; E. cloacae A9657, Table 1
  MIC: 50 µg/mL
[10]; E. cloacae A9657, Table 8
  MIC: 100 µg/mL
[10]; E. cloacae A9659, Table 1
  MIC: 25 µg/mL
[10]; E. cloacae A9659, Table 8
  MIC: 25 µg/mL
[11]; E. coli A9635, Table 8, read-out: MIC
  MIC: 12.5 µg/mL
[11]; E. coli A9844, Table 8, read-out: MIC
  MIC: 6.3 µg/mL
[11]; E. coli A20366, Table 8, read-out: MIC
  MIC: > 100 µg/mL
[11]; E. coli A20520, Table 8, read-out: MIC
  MIC: 3.1 µg/mL
[11]; E. coli A20664, Table 8, read-out: MIC
  MIC: 0.8 µg/mL
[11]; E. coli A20732, Table 8, read-out: MIC
  MIC: 50 µg/mL
[11]; E. coli A20898, Table 8, read-out: MIC
  MIC: > 100 µg/mL
[11]; E. coli Juhl A9435, Table 1
  MIC: 12.5 µg/mL
[11]; E. coli Juhl A9844, Table 1, read-out: MIC
  MIC: 3.1 µg/mL
[11]; E. coli Juhl A15119, Table 1, read-out: MIC
  MIC: 12.5 µg/mL
[11]; E. coli Juhl A15119, Table 8, read-out: MIC
  MIC: 12.5 µg/mL
[11]; E. coli Juhl A20366, Table 1, read-out: MIC
  MIC: > 100 µg/mL
[11]; E. coli Juhl A20520, Table 1, read-out: MIC
  MIC: 1.6 µg/mL
[11]; E. coli Juhl A20664, Table 1, read-out: MIC
  MIC: 0.8 µg/mL
[11]; E. coli Juhl A20732, Table 1, read-out: MIC
  MIC: 100 µg/mL
[11]; E. coli Juhl A20898, Table 1, read-out: MIC
  MIC: > 100 µg/mL
[11]; E. coli NIHJ, Table 1, read-out: MIC
  MIC: 0.8 µg/mL
[11]; E. coli NIHJ, Table 8, read-out: MIC
  MIC: 3.1 µg/mL
[12]; Pseudomonas sp. A20358, Table 1, read-out: MIC
  MIC: 1.6 µg/mL
[12]; Pseudomonas sp. A20358, Table 8
  MIC: 1.6 µg/mL
